Data taken from US20230117034A1, “PYRAZOLOTRIAZINES” (Bayer Aktiengesellschaft, priority 2019, published 2023).

Biological target: T1, CDK12 protein level in CAL-120 breast cancer cells (Homo sapiens, UniProt Q9NYV4)
T1 construct: endogenous in cells; host or cells: CAL-120 human breast cancer cells (DSMZ ACC 459)
Test: CDK12 protein level: Protein Simple (CDK12, CAL-120)
Type: cell-based
Conditions: CAL-120 cells, 18 h with compound, CDK12/HSP90 peak area ratio vs vehicle, median, read-out: CDK12 protein level in CAL-120 breast ca cells, DC50-[mol/l] (median)
Summary of the method: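 Cells grown 24 h, then treated with compounds for 18 h at 37° C against DMSO controls. Lysates (0.4 microgramms protein) run on Protein Simple 66-440 kDa size assay with CDK12 and HSP90 loading-control antibodies. CDK12/HSP90 peak-area ratios versus vehicle gave DC50 (50% reduction) by 4-parameter fit.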

T1 sequence (Q9NYV4 whole entry): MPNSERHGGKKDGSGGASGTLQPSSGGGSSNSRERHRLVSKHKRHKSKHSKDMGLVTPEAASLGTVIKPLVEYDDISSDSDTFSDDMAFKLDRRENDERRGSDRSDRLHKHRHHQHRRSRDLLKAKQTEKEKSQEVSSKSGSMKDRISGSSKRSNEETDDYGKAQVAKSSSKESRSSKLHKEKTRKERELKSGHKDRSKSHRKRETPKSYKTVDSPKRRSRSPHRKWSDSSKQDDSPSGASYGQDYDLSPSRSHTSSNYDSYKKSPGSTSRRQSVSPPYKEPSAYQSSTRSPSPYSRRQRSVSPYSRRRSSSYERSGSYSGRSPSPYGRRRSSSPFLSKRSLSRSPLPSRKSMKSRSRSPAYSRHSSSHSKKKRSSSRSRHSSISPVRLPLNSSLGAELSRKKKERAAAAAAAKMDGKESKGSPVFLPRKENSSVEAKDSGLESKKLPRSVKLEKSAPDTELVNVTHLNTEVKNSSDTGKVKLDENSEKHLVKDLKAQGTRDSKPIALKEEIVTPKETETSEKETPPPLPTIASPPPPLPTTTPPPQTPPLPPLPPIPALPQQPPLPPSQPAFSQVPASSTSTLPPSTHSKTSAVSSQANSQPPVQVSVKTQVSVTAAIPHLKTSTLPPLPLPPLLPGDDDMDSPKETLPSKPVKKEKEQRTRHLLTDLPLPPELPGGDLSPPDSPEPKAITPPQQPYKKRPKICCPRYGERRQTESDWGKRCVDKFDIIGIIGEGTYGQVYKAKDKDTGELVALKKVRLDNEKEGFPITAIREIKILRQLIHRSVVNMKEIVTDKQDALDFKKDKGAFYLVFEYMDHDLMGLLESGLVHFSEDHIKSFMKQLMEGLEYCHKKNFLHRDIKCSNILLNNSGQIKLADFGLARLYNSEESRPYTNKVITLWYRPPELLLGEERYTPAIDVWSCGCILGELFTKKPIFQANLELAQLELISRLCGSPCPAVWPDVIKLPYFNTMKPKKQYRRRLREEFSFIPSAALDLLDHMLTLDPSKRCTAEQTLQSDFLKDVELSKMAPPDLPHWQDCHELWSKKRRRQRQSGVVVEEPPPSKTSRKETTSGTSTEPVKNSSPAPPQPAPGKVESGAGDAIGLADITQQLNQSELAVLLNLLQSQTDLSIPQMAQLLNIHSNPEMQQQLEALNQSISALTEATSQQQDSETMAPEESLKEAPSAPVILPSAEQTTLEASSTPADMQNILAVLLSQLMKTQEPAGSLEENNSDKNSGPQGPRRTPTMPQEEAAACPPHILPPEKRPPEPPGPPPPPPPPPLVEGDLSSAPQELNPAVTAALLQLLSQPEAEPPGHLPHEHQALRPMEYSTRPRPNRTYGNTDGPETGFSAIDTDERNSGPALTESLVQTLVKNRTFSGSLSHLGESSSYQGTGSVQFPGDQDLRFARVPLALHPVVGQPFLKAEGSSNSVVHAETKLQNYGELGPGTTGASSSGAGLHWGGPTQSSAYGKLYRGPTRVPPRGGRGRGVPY
T1 sequence (O75909 whole entry partner): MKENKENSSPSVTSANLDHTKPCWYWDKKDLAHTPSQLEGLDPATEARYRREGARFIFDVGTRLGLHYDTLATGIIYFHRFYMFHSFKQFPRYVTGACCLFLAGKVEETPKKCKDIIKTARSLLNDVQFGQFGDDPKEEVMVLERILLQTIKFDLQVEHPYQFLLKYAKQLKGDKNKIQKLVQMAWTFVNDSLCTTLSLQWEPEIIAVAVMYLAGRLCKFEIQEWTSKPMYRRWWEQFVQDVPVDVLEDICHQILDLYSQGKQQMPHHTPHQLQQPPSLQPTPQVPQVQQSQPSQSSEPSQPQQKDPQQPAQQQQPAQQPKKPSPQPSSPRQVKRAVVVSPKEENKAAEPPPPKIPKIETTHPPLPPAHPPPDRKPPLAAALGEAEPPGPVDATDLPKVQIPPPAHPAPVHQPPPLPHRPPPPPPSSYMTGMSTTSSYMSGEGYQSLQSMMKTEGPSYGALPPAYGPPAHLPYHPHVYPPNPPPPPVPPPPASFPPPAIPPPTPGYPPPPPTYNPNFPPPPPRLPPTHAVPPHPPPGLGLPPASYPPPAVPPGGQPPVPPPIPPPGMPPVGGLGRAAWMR

| SMILES | DC50 [nM] |
| --- | --- |
| COc1cccc(-c2nnc(CNc3nc(N4CCOCC4)nc4c(Br)cnn34)[nH]2)c1 [Example 50, 8-bromo-N-{[5-(3-methoxyphenyl)-4H-1,2,4-triazol-3-yl]methyl}-2-(morpholin-4-yl)pyrazolo[1,5-a][1,3,5]triazin-4-amine] | 39.6 |
| Brc1cnn2c(NCc3nc4ccccc4[nH]3)nc(N3CCCCC3)nc12 [Example 46, N-[(1H-benzimidazol-2-yl)methyl]-8-bromo-2-(piperidin-1-yl)pyrazolo[1,5-a][1,3,5]triazin-4-amine] | < 30 |
| Brc1cnn2c(NCc3nc4ccccc4[nH]3)nc(N3CCCC3)nc12 [Example 47, N-[(1H-benzimidazol-2-yl)methyl]-8-bromo-2-(pyrrolidin-1-yl)pyrazolo[1,5-a][1,3,5]triazin-4-amine] | 58.9 |
| Brc1cnn2c(NCc3nc4ccccc4[nH]3)nc(N3CC4(COC4)C3)nc12 [Example 48, N-[(1H-benzimidazol-2-yl)methyl]-8-bromo-2-(2-oxa-6-azaspiro[3.3]heptan-6-yl)pyrazolo[1,5-a][1,3,5]triazin-4-amine] | < 30 |
| Brc1cnn2c(NCc3nnc(-c4ccccn4)[nH]3)nc(N3CCOCC3)nc12 [Example 54, 8-bromo-2-(morpholin-4-yl)-N-{[5-(pyridin-2-yl)-4H-1,2,4-triazol-3-yl]methyl}pyrazolo[1,5-a][1,3,5]triazin-4-amine] | < 30 |
